# Reference: patent US20060173041A1, “Sulphonylpiperidine derivatives containing an aryl or heteroaryl group for use as matrix metalloproteinase inhibitors” (priority 2002, published 2006)
# Molecular target: T1, proTNFα convertase enzyme (TACE) (Homo sapiens, UniProt P78536)
# T1 construct: partially purified, isolated enzyme assay, the enzyme being obtained from the membranes of THP-1; endogenous in cells; host or cells: THP-1 cell membranes, partially purified as in Mohler et al. (1994) Nature 370:218-220
# T1 sequence (P78536 215-824): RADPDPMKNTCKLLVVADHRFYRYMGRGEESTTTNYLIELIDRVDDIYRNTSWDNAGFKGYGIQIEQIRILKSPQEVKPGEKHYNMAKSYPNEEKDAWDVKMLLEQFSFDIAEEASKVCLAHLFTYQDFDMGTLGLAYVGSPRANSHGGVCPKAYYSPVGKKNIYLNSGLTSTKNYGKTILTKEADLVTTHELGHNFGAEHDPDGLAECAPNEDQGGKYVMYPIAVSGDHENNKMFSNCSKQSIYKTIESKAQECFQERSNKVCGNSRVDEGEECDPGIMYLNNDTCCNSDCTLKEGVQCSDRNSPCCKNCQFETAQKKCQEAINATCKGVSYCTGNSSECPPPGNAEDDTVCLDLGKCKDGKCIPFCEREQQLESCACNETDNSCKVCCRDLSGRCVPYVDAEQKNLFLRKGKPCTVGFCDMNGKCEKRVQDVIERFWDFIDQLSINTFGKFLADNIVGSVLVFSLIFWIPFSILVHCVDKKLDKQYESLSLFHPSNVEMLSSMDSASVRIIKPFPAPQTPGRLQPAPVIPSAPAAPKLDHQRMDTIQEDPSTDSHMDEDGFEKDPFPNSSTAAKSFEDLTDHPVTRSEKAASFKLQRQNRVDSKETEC
# Assay: partially purified isolated enzyme assay for proTNFα convertase (TACE)
# Format: biochemical
# Settings: 10 μM of compound; enzyme from membranes of THP-1; 26° C. for 4 hours
# Description: Recombinant human proMMP13 may be expressed and purified as described by Knauper et al. [V. Knauper et al., (1996) The Biochemical Journal 271:1544-1550 (1996)]. […] Activity is determined by measuring the fluorescence at λex 328 nm and λem 393 nm. Percent inhibition may be calculated as follows: % Inhibition is equal to the [Fluorescenceplus inhibitor−Fluorescencebackground] divided by the [Fluorescenceminus inhibitor−Fluorescencebackground].
# The ability of the compounds to inhibit proTNFα convertase enzyme (TACE) has been assessed using a partially purified, isolated enzyme assay, the enzyme being obtained from the membranes of THP-1 as described by K. M. Mohler et al., (1994) Nature 370:218-220. The purified enzyme activity and inhibition thereof was determined by incubating the partially purified enzyme in the presence or absence of test compounds using the substrate 4′,5′-Dimethoxy-fluoresceinyl Ser.Pro.Leu.Ala.Gln.Ala.Val.Arg.Ser.Ser.Ser.Arg.Cys(4-(3-succinimid-1-yl)fluorescein)-NH2 in assay buffer (50 mM Tris HCl, pH 7.4 containing 0.1% (w/v) Triton X-100 and 2 mM CaCl2), at 26° C. for 4 hours. The amount of inhibition was determined as for MMP13 except λex 485 nm and λem 538 nm were used. […]
row,Structure (SMILES),inhibition at 10 µM
1,"CC(C)Oc1ccccc1OC1CCN(S(=O)(=O)CC(c2ccccc2)N(O)C=O)CC1 (racemic) [Example 8, (R/S)-hydroxy(2-{[4-(2-isopropoxyphenoxy)piperidin-1-yl]sulphonyl}-1-phenylethyl)formamide]",81%
2,CC(C)NC(=O)c1ccccc1OC1CCN(S(=O)(=O)CC(c2ccccc2)N(O)C=O)CC1 (racemic) [Example 14],76%
